According to publication PMC11062899, “De novo development of small cyclic peptides that are orally bioavailable” (Nature Chemical Biology, 2023):
Values joined by “and” are separate entries in the source; they are usually repeats but may differ in a detail not shown here. Identical values can stand only once. Like-named read-outs stand apart in the source and are kept apart here.

Columns and labels:
rat α-thrombin = target: T1, rat α-thrombin (Rattus norvegicus, UniProt P18292); assay: Protease inhibition, Ki for rat α-thrombin (fluorogenic substrate Z-Gly-Gly-Arg-AMC); assay type: biochemical; conditions: for Rat alpha thrombin inhibition, slope normalized to DMSO: replicates R1-R3
T1 construct: rat α-thrombin (Molecular Innovations) were used at final concentrations of 2 nM and 3 nM; purchased Molecular Innovations
Method: (§1) The inhibition constants (Ki) of cyclic peptides were calculated by measuring thrombin inhibition in the presence of different concentrations of the cyclic peptides. […] Human α-thrombin (Molecular Innovations) and rat α-thrombin (Molecular Innovations) were used at final concentrations of 2 nM and 3 nM, respectively, and fluorogenic substrate (Z-Gly-Gly-Arg-AMC, Bachem) was used at a concentration of 50 μM. Enzymatic activity was determined by measuring fluorescent gain on a Tecan Infinite M200 Pro microplate reader (excitation: 360 nm, emission: 465 nm) or a PHERAstar FSX microplate reader (excitation: 380 nm, emission: 440 nm) for 30 min at 25 °C with a fluorescent readout every 3 min. The two instruments were controlled with Tecan Infinite M200 Pro instrument software (iControl, version 1.12) and PHERAstar FSX software (version 5.70, edition 8), respectively. Protease inhibition was calculated by comparing the enzymatic activity to a control without cyclic peptide.
(§2) Half maximal inhibitory concentration (IC50) values were determined using a four-parameter logistic regression model in GraphPad Prism 9 to fit sigmoidal curves to the acquired data points according to equation (2) below.2 y=b+a−b/1+10^(logIC50−x)p where a and b represent the measured inhibition maximum and minimum, respectively; x is the logarithm of peptide concentration; y is the thrombin activity compared to a control without the cyclic peptide; and p is the Hill coefficient.
(§3) Ki values were calculated using the IC50 and the Cheng–Prusoff equation (equation (3)).3 Ki=IC50/1+S0/Km where Km is the Michaelis–Menten constant of the enzyme for the substrate used in the assay, and [S]0 is the initial substrate concentration.

human α-thrombin = human α-thrombin (Homo sapiens, UniProt P00734); assay: Protease inhibition, Ki for human α-thrombin (fluorogenic substrate Z-Gly-Gly-Arg-AMC); assay type: biochemical; conditions: for Human alpha thrombin inhibition, slope normalized to DMSO: replicates R1-R3
Method: as §1, §2, §3

[1] = Passive artificial membrane permeability (PAMPA);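 as to Permeability% Average: top well sample relative to theoretical equilibrium sample by TIC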
[2] = peptide concentration 1.00E+02 uM
[3] = peptide concentration 1.19E-05 uM
[4] = peptide concentration 1.22E-02 uM
[5] = peptide concentration 1.25E+01 uM
[6] = peptide concentration 1.53E-03 uM
[7] = peptide concentration 1.56E+00 uM
[8] = peptide concentration 1.91E-04 uM
[9] = peptide concentration 1.95E-01 uM
[10] = peptide concentration 2.38E-05 uM
[11] = peptide concentration 2.44E-02 uM
[12] = peptide concentration 2.50E+01 uM
[13] = peptide concentration 3.05E-03 uM
[14] = peptide concentration 3.12E+00 uM
[15] = peptide concentration 3.81E-04 uM
[16] = peptide concentration 3.91E-01 uM
[17] = peptide concentration 4.77E-05 uM
[18] = peptide concentration 4.88E-02 uM
[19] = peptide concentration 5.00E+01 uM
[20] = peptide concentration 6.10E-03 uM
[21] = peptide concentration 6.25E+00 uM
[22] = peptide concentration 7.63E-04 uM
[23] = peptide concentration 7.81E-01 uM
[24] = peptide concentration 9.54E-05 uM
[25] = peptide concentration 9.77E-02 uM

Ki (rat α-thrombin; average of R1-R3, read-out: Rat alpha thrombin inhibition, Ki Average): 180 nM
Rat alpha thrombin inhibition, slope normalized to DMSO (rat α-thrombin; [2]): 5.3 and 5.7 and 4.1
Rat alpha thrombin inhibition, slope normalized to DMSO (rat α-thrombin; [3]): 101.7 and 102.1 and 101.8
Rat alpha thrombin inhibition, slope normalized to DMSO (rat α-thrombin; [4]): 87.5 and 92.0 and 84.9
Rat alpha thrombin inhibition, slope normalized to DMSO (rat α-thrombin; [5]): 9.2 and 8.7 and 7.8
Rat alpha thrombin inhibition, slope normalized to DMSO (rat α-thrombin; [6]): 94.8 and 97.7 and 92.4
Rat alpha thrombin inhibition, slope normalized to DMSO (rat α-thrombin; [7]): 25.0 and 25.1 and 31.0
Rat alpha thrombin inhibition, slope normalized to DMSO (rat α-thrombin; [8]): 106.1 and 99.6 and 88.4
Rat alpha thrombin inhibition, slope normalized to DMSO (rat α-thrombin; [9]): 69.0 and 50.2 and 49.8
Rat alpha thrombin inhibition, slope normalized to DMSO (rat α-thrombin; [10]): 103.2 and 98.1 and 102.8
Rat alpha thrombin inhibition, slope normalized to DMSO (rat α-thrombin; [11]): 92.3 and 89.1 and 86.1
Rat alpha thrombin inhibition, slope normalized to DMSO (rat α-thrombin; [12]): 4.2 and 6.8 and 8.8
Rat alpha thrombin inhibition, slope normalized to DMSO (rat α-thrombin; [13]): 99.2 and 99.8 and 88.1
Rat alpha thrombin inhibition, slope normalized to DMSO (rat α-thrombin; [14]): 8.2 and 23.7 and 18.2
Rat alpha thrombin inhibition, slope normalized to DMSO (rat α-thrombin; [15]): 107.3 and 92.0 and 81.7
Rat alpha thrombin inhibition, slope normalized to DMSO (rat α-thrombin; [16]): 38.0 and 46.4 and 45.2
Rat alpha thrombin inhibition, slope normalized to DMSO (rat α-thrombin; [17]): 102.3 and 101.4 and 86.4
Rat alpha thrombin inhibition, slope normalized to DMSO (rat α-thrombin; [18]): 83.5 and 87.2 and 79.0
Rat alpha thrombin inhibition, slope normalized to DMSO (rat α-thrombin; [19]): 3.7 and 8.5 and 7.9
Rat alpha thrombin inhibition, slope normalized to DMSO (rat α-thrombin; [20]): 92.6 and 94.8 and 84.9
Rat alpha thrombin inhibition, slope normalized to DMSO (rat α-thrombin; [21]): 13.6 and 12.8 and 13.7
Rat alpha thrombin inhibition, slope normalized to DMSO (rat α-thrombin; [22]): 102.3 and 100.6 and 67.7
Rat alpha thrombin inhibition, slope normalized to DMSO (rat α-thrombin; [23]): 42.8 and 23.4 and 43.3
Rat alpha thrombin inhibition, slope normalized to DMSO (rat α-thrombin; [24]): 92.9 and 92.2 and 96.6
Rat alpha thrombin inhibition, slope normalized to DMSO (rat α-thrombin; [25]): 73.2 and 69.4 and 67.8
IC50 (rat α-thrombin; single replicates R1-R3, read-out: Rat alpha thrombin inhibition, IC50): 326 nM and 228 nM and 420 nM
Ki (human α-thrombin; average of R1-R3, read-out: Human alpha thrombin inhibition, Ki Average): 1570 nM
Human alpha thrombin inhibition, slope normalized to DMSO (human α-thrombin; [2]): 9.8 and 10.5 and 10.6
Human alpha thrombin inhibition, slope normalized to DMSO (human α-thrombin; [3]): 108.3 and 123.2 and 86.4
Human alpha thrombin inhibition, slope normalized to DMSO (human α-thrombin; [4]): 81.6 and 60.4 and 71.9
Human alpha thrombin inhibition, slope normalized to DMSO (human α-thrombin; [5]): 16.2 and 18.0 and 13.2
Human alpha thrombin inhibition, slope normalized to DMSO (human α-thrombin; [6]): 102.7 and 105.3 and 96.0
Human alpha thrombin inhibition, slope normalized to DMSO (human α-thrombin; [7]): 60.1 and 45.1 and 57.4
Human alpha thrombin inhibition, slope normalized to DMSO (human α-thrombin; [8]): 110.2 and 100.0 and 95.6
Human alpha thrombin inhibition, slope normalized to DMSO (human α-thrombin; [9]): 90.5 and 54.5 and 66.4
Human alpha thrombin inhibition, slope normalized to DMSO (human α-thrombin; [10]): 111.1 and 102.0 and 98.3
Human alpha thrombin inhibition, slope normalized to DMSO (human α-thrombin; [11]): 60.0 and 83.9 and 99.7
Human alpha thrombin inhibition, slope normalized to DMSO (human α-thrombin; [12]): 16.8 and 4.9 and 12.0
Human alpha thrombin inhibition, slope normalized to DMSO (human α-thrombin; [13]): 65.1 and 103.9 and 92.0
Human alpha thrombin inhibition, slope normalized to DMSO (human α-thrombin; [14]): 47.1 and 40.3 and 37.6
Human alpha thrombin inhibition, slope normalized to DMSO (human α-thrombin; [15]): 113.9 and 97.1 and 98.1
Human alpha thrombin inhibition, slope normalized to DMSO (human α-thrombin; [16]): 59.1 and 81.1 and 60.5
Human alpha thrombin inhibition, slope normalized to DMSO (human α-thrombin; [17]): 106.6 and 104.5 and 98.0
Human alpha thrombin inhibition, slope normalized to DMSO (human α-thrombin; [18]): 96.4 and 58.3 and 94.8
Human alpha thrombin inhibition, slope normalized to DMSO (human α-thrombin; [19]): 14.2 and 14.0 and 12.9
Human alpha thrombin inhibition, slope normalized to DMSO (human α-thrombin; [20]): 78.1 and 71.3 and 72.1
Human alpha thrombin inhibition, slope normalized to DMSO (human α-thrombin; [21]): 15.4 and 28.4 and 22.2
Human alpha thrombin inhibition, slope normalized to DMSO (human α-thrombin; [22]): 61.4 and 105.9 and 50.7
Human alpha thrombin inhibition, slope normalized to DMSO (human α-thrombin; [23]): 75.8 and 62.9 and 64.9
Human alpha thrombin inhibition, slope normalized to DMSO (human α-thrombin; [24]): 104.3 and 61.9 and 103.5
Human alpha thrombin inhibition, slope normalized to DMSO (human α-thrombin; [25]): 84.6 and 105.9 and 85.2
IC50 (human α-thrombin; single replicates R1-R3, read-out: Human alpha thrombin inhibition, IC50): 2700 nM and 1730 nM and 1690 nM
PAMPA permeability: % permeability ([1]; 50 μM, 12–18 h, acceptor concentration relative to equilibrium): 64 ± 11%
Permeability% (single replicates R1–R3) ([1]; 50 μM, 13 h (Fig. 5d)): 76.34% and 63.06% and 53.71%
Permeability% Average ([1]; 50 μM, 13 h (Fig. 5d)): 64.4%
Papp at 50 μM ([1]; PAMPA, pH 7.4): 9.33 ×10⁻⁶ cm/s
Structure (SMILES): O=C1C[C@H]2CCCN2C(=O)[C@H](Cc2ccccc2)NC(=O)[C@@H](NC(=O)c2ccc(Cl)s2)CCC=CCCCN1 [compound 41]
Ki (rat α-thrombin; single replicates R1-R3, read-out: Rat alpha thrombin inhibition, Ki): 180 nM (2×) and 126 nM (2×) and 232 nM (2×)
Ki (human α-thrombin; single replicates R1-R3, read-out: Human alpha thrombin inhibition, Ki): 2.08 µM (2×) and 1.34 µM (2×) and 1.3 µM (2×)
